Source: patent US9981997B2, “Chemical reagents for attaching affinity molecules on surfaces” (ARIZONA BOARD OF REGENTS ON BEHALF OF ARIZONA STATE …, priority 2013, dated 2018)

Target: T1, thrombin (Homo sapiens, UniProt P00734)
T1 construct: protein cognates human α-thrombin and human α5β1-integrin immobilized on mica surfaces; purchased Abeam (so in the source)
Assay: AFM recognition imaging of thrombin on mica
Type: binding
Conditions: conjugate on Ni-coated MacMode silicon tip; protein 50 pg/μL
Source text: The AFM based recognition imaging is an effective tool for clinical diagnostics. The attachment and click chemistry of the disclosure works well in combination with the RI technique. Prior to this disclosure, the recognition imaging of clinically relevant proteins thrombin and integrin had not been reported. […] Linker 6a was tailored for RI. Its conjugate D-1a or P-1a was attached to Ni-coated MacMode tips (from Nanoworld) following the same protocol above mentioned. The protein samples (thrombin or α5β1 integrin) were deposited on mica using the same glutaraldehyde chemistry. However, the optimal protein concentration (50 pg/μL in 1×PBS buffer, pH 7.4) for the RI was […] lower than that for the force measurements, which was pre-determined by imaging the surface with bare AFM tips in the air mode, ensuring that the protein molecules were well distributed in a predefined area. For one measurement, only […] of protein sample is needed in the current setup. Thus, a few femtomoles of proteins can readily be detected by the AFM based recognition imaging. […] RI simultaneously produces both topographic and recognition images. Each bright round spot in the topographic image represents a protein molecule (thrombin in Panel A and integrin in panel D of FIG. 16). […]

D-1a: thrombin-binding DNA aptamer 5′-GGTTGGTGTGGTTGG, 3′-thiol, joined to PEG linker 6a by Michael addition (DNA, backbone not given here; 3'-thiol joined to PEG linker 6a by Michael addition)
recognition of thrombin (topography vs recognition image): About 77%
